{"source": "patent US20220133694A1", "about": "“PHARMACEUTICAL USE” (Novartis AG, priority 2015, published 2022)", "test_system": "heart failure patients (NYHA class II-IV) with reduced ejection fraction", "conditions": "randomized patients", "description": "Patients enrolled were stratified based on the pre-study level of RAAS inhibition (high/low).\nPatients were stratified based on the level of RAAS inhibition as follows: • High RAAS stratum: Patients receiving >160 mg of valsartan or >10 mg total daily dose of enalapril, or equivalent doses of other ARBs/ACEls, respectively, at screening • Low RAAS stratum: Patients receiving ≤160 mg of valsartan or ≤10 mg total daily dose of enalapril, or equivalent doses of other ARBs/ACEls, respectively, at screening. This stratum also included patients who were not on an ACEI or an ARB 4 weeks prior to screening (i.e., ACEI/ARB-naive patients)\nPatients who met all the entry criteria and completed the ACEI-free washout period (if required) attended Visit 2 within approximately one week after Visit 1. […] Eligible hospitalized patients also took the study medication while they were still in the hospital and before they were discharged. Patients took the study medication in addition to their background HF therapy, except for ACEIs and ARBs, which were replaced by the study medication."}
{"substance": "trisodium [3-((1S,3R)-1-biphenyl-4-ylmethyl-3-ethoxycarbonyl-1-butylcarbamoyl) propionate-(S)-3′-methyl-2′-(pentanoyl{2″-(tetrazol-5-ylate)biphenyl-4′-ylmethyl}amino)butyrate]hemipentahydrate [LCZ696]", "values": [{"measurement": "most common reasons for dose adjustment/interruption or permanent discontinuation (AEs)", "value": "hypotension, renal dysfunction or hyperkalemia"}]}
